According to patent US20230097253A1, “NOVEL QUINAZOLINE COMPOUND AS THERAPEUTIC AGENT FOR METABOLIC DISORDERS” (BIOWAY., INC, priority 2020, published 2023):

Experiments:
MRC5 cells = test: Cytotoxicity in normal cells, CCK8 analysis; type: cell-based; details: 0.5-100 μM, 24 hours, CCK8, compared with the control group, FIG. 2
Method: For confirmation of cytotoxicity in normal cells, MRC (i.e., normal lung cells) were cultured in an incubator set at 37° C. with 95% humidity and 5% CO2.
Additionally, MRC5 cells were proliferated to a confluency of 70-80% on a plate using a growth medium (Minimum Essential Medium (MEM) supplemented with 10% fetal bovine serum (FBS), 100 U/ml of penicillin, and 100 μg/ml of streptomycin), and then used for the experiment.
In order to confirm the cytotoxicity of the compound according to an embodiment of the present invention, CCK8 analysis was performed for the prepared MRC5 cells.
First, after culturing MRC5 cells to 70-80% confluency in a 24-well plate, the test material was diluted in a culture medium except for the control group and treated with 0.5 μM, 2.5 μM, 10 μM, 20 μM, 40 μM, 80 μM, and 100 μM.
After 24 hours of treatment of the test material, CCK8 solution was dispensed 10 μL per well and incubated for 2 hours in a state where the light was blocked.
After 2 hours, 200 μL of the culture solution from each well was transferred to a 96 well plate and absorbance was measured at 450 nm.

[1] = system: steatosis-induced Huh7 cells; test: Protein expression levels (western blot) for MOA confirmation in steatosis-induced liver cells; type: cell-based; details: 250 μM PA, 0.25-40 μM compound, 24 hours, FIG. 1
Method: An experiment to confirm the expression levels of proteins in steatosis-induced liver cells was conducted as follows.
To determine the protein expression level for MOA confirmation in steatosis-induced liver cells BW-3290 of the present invention, Huh7 cells were cultured in an incubator set at 37° C., 95% humidity, and 5% CO2.
Additionally, Huh7 cells were proliferated to a confluency of 80-90% on a plate using a growth medium (Dulbecco's modified Eagle's medium (DMEM) supplemented with 10% fetal bovine serum (FBS), 100 U/ml of penicillin, and 100 μg/ml of streptomycin), and then used for the experiment.
To induce steatosis in Huh-7 cells in each well except for control cells, the Huh-7 cells were treated with PA bound to 2% BSA at a concentration of 250 μM except for the control, and the control cells were pretreated with 2% BSA without FA.
The cells in each well were treated with the compounds of the present invention, R- or S-form of BW-3290, 0.25 μM, 0.5 μM, 1 μM, 5 μM, 10 μM, 20 μM, and 40 μM and then cultured for 24 hours. The control cells and PA treated cells were treated with DMSO. All media were aspirated and the cells were gently washed 3 times with cold PBS.
A cold lysis buffer containing 150 mM sodium chloride (NaCl), 5 mM ethylenediaminetetraacetic acid (EDTA), pH 8.0, […] 4-(2-hydroxyethyl)-1-piperazineethanesulfonic acid (HEPES), 1% nonylphenoxypolyethoxylethanol (NP-40), 2 μg/mL aprotinin, 1 μM pepstatin A, 10 μM leupeptin, 1 mM sodium fluoride (NaF), 0.2 mM sodium orthovanadate ([…]), and 1 μM phenylmethylsulfonyl fluoride (PMSF) was added thereto.
A whole cell lysate was collected and gently pipetted at least 10 times to ensure complete lysis. The sample was incubated on ice for 20 minutes and centrifuged 4° C. at 13,000 rpm, for 20 minutes. The supernatant was collected, 5× sodium dodecyl sulfate (SDS) sample buffer containing 50 mM Tris-CI (pH 6.8), 2% SDS, 0.1% bromopheol blue, and 10% glycerol was added to the sample, and boiled at 95° C. for 5 minutes.
The wells of 10% SDS-polyacrylamide gel electrophoresis (SDS-PAGE) were loaded with the same amount of a protein along with the molecular weight marker. The gel was electrophoresed at 100 V for 30 minutes in an electrophoresis chamber (Bio-Rad Laboratories, Hercules, Calif., USA).
A polyvinylidene fluoride (PVDF) membrane (MilliporeSigma, Burlington, Mass., USA) was activated with methanol (MeOH) for 1 minute and washed with a transfer buffer containing 25 mM Tris, 190 mM glycine, and 20% MeOH. The gel was placed in the transfer buffer for 10 minutes.
The transfer sandwich (in the order of paper, gel, membrane, and paper) was assembled and it was checked whether no air bubbles were trapped in the transfer sandwich. The transfer sandwich was placed in a transfer tank (Bio-Rad Laboratories) and ice cubes were placed in the transfer tank to prevent the transfer buffer from being heated. The protein was transferred from the gel to the PVDF membrane at 100 V for 30 minutes.
After washing the PVDF membrane with distilled water, the membrane was blocked for 1 hour at room temperature with a blocking buffer prepared by 5% skim milk (Difco Laboratories, Franklin Lakes, N.J., USA) in TBST containing 0.1% tween 20 (TBST, Sigma-Aldrich).
The membrane was incubated in a buffer in which the primary antibody was appropriately diluted. The membrane of fatty acid synthase (FAS), phosphor-AMP-activated protein kinase (p-AMPK), SIRT1, and SIRT3 was washed 3 times with TBST for 5 minutes each.
The membrane was incubated with a recommended dilution of horseradish peroxidase (HRP)-conjugated secondary mouse antibody in blocking buffer at room temperature for 1 hour.
The membrane was washed 5 times with TBST for 5 minutes each. Excess reagent was removed and the membrane was covered with a clear plastic wrap.
ECL prime western blotting detection reagent (GE Healthcare, Chicago, Ill., USA) was applied according to the manufacturer's recommendations. […]

Row | Compound | cytotoxicity in normal cells (MRC5 cells) | SIRT1 protein expression level [1] | SIRT3 protein expression level [1] | level of FAS (fat synthesis protein) [1] | p-AMPK protein expression level [1]
1 | CC(C)C(Nc1ncnc2nc[nH]c12)c1nc2cccc(Cl)c2c(=O)n1-c1ccccc1 (racemic) [RS-form, 2-(1-((7H-purin-6-yl)amino)-2-methylpropyl)-5-chloro-3-phenylquinazolin-4(3H)-one] | showed some toxicity | – | – | – | –
2 | CC(C)[C@@H](Nc1ncnc2nc[nH]c12)c1nc2cccc(Cl)c2c(=O)n1-c1ccccc1 [R-form of BW-3290, (R)-2-(1-((7H-purin-6-yl)amino)-2-methylpropyl)-5-chloro-3-phenylquinazolin-4(3H)-one] | did not show toxicity | increased | increased | decreased in a concentration-dependent manner | increased
3 | CC(C)[C@H](Nc1ncnc2nc[nH]c12)c1nc2cccc(Cl)c2c(=O)n1-c1ccccc1 [S-form, (S)-2-(1-((7H-purin-6-yl)amino)-2-methylpropyl)-5-chloro-3-phenylquinazolin-4(3H)-one] | showed some toxicity | increased | increased | – | increased
